SMILES strings stand for the structures. Where two headings read alike, the source gives them in different places.

Results on eleven compounds are retold here after patent US12297186B2, “Benzylamide derivatives as inhibitors of transforming growth factor-beta receptor I/ALK5” (AGOMAB SPAIN, S.L.U., priority 2019, dated 2025).

One data set deals with heart valves. The settings on record: rats, all doses tested; cited from earlier work.
The conditions of data set [1]: rats; cited from earlier work.
Another data set has as its target Human TGFβR-1 kinase (Homo sapiens (Human), UniProt P36897). In words: In vitro enzyme assay: inhibition of TGFβR-1 kinase activity (ADP-Glo). Format: biochemical. The settings on record: TGFβR-1 kinase, 50 μM ATP; read-out: IC50 range. As for the experimental part: In Vitro Enzyme Assay: Inhibition of TGFβR-1Kinase Activity
Human TGFβl R-1 inhibition experiments were carried out in a white 384-microplate low flange (Corning 3572) with ADP-Glo kinase Assay Kit (Promega V9101) and TGβR-1 Kinase Enzyme System (Promega V4092). […] The reaction mixture was incubated in gentle shaking for 120 min at RT, after incubation of 10 μL of ADP-Glo Reagent was added and incubated in gentle shaking for 40 min at RT. 20 μL of Kinase Detection Reagent was added and plate was incubated in gentle shaking for 30 min at RT. Luminiscence (1000 ms) was measured in Perkin Elmer EnSpire Multimode plate reader.

The nature of data set [2]: Identification study of metabolite. In kind it is in vitro ADME. From the text:
In an identification study of metabolite was identified Compound A. Said compound is 2-(3-(6-methylpyridin-2-yl)-4-(quinolin-4-yl)-1H-pyrazol-1-yl)acetic acid and has the following formula: […]
Compound A was identified as the major metabolite of examples 9, 15, 20, 22, 24 and 26, among others.

Data set [3] in a line: Plasma pharmacokinetic assay, single oral administration. Format: in vivo, male Sprague Dawley rats. The settings on record: rat, P.O., 5 mg/kg; for AUC(0-inf) / AUC(0-t) / Cmax / Tmax: male, Sprague-Dawley, po, plasma. On the procedure: Plasma Pharmacokinetic Assay
The objective of this study was to investigate the plasma pharmacokinetics of some compounds of the present invention in male Sprague Dawley rats following a single oral administration. Three rats per compound were used in this study. Animals were administered with suspension formulation of each compound in 0.5% Tween-80 and 99.5% NaCMC (0.5% w/v in RO Water) by oral route at 5 mg/kg. The blood samples were collected from set of three rats at each time point in labelled micro centrifuge tube containing K2EDTA solution as anticoagulant at 0.25, 0.5, 1, 2, 4, 6, 8, 12 and 24 hr (p.o.). Plasma samples were separated by centrifugation of whole blood and stored below −70±10° C. until bioanalysis. All samples were processed for analysis by protein precipitation using acetonitrile and analysed with fit-for-purpose LC-MS/MS method (LLOQ=1.01 ng/mL). Pharmacokinetic parameters were calculated using the non-compartmental analysis tool of Phoenix WinNonlin® (Version 7.0).

The next data set concerns the target TGF-beta kinase (ALK-5) (Homo sapiens (Human), UniProt P36897). In words: Determination of the intracellular TGF-beta kinase activity (ALK-5), p-SMAD3 AlphaLISA in A549 cells. The note with it: A549 cell line, TGF-β2 activated, p-SMAD3; read-out: IC50 range. Format: cell-based. As for the experimental part: Determination of the Intracellular TGF-beta Kinase Activity (ALK-5)
The experiments were carried out in A549 cell line. 30000 cells were seeded in 200 μl of culture medium (Sigma D6046) supplemented with L-Glutamine (Sigma G7513), Penicillin/Streptomycin (Invitrogen 11058) and FBS (Sigma F9665) on a 96 wells microplate (Becton Dickinson 353072). After 16 hours medium waschanged to serum free medium.
In general terms: Bead proximity is the source of the signal in Alpha formats.

A short description of data set [4]: Metabolic stability assay, rat microsomes. In kind it is in vitro ADME. The settings on record: for microsomal CLint: rat recombinant microsomes (Tebu-Xenotech), pH 7.4. As for the experimental part: (§1) Metabolic Stability Assay
(§2) Human and rat recombinant microsomes from Tebu-Xenotech were employed in the assay. They content 0.5 mg/ml of protein. The following quantities were added to each well of a 96-well microplate.
(§3) Plates were incubated at 37° C. and 75 μL samples were taken at 0, 10, 20, 40 and 60 minutes. Samples were transferred to a microplate and 75 μl Acetonitrile were added for inactivating the microsomes, and 30 μl of H2O for improving the chromatographic conditions and kept at 4° C. When all the samples were taken the plate was centrifuged at […] for 30 min at 15° C. Supernatant was taken and injected in the UPLC-MS/MS.
(§4) Stationary phase: Reverse phase Acquity UPLC® BEH C18 1.7 μm (2.1 mm×50 mm) (Waters). Mobile phase: A: 0.1% formic; B:acetonitrile+0.1% formic acid. Flow: 0.6 ml/min. The chromatographic equipment employed was an UPLC QSM Waters Acquity. Compound concentrations were calculated from the UV peak areas. The response was linear in the range between 10 ng/ml and 0.3125 ng/ml. Metabolic stability was calculated from the logarithm of the remaining compound at each of the times evaluated.
(§5) The data will be fitted to the one phase exponential decay equation using GraphPad Prism® software. The half-life (t1/2) generated by the software will be reported. Intrinsic clearance will be calculated using the formula where, k=decay rate constant (min^−1).

A short description of data set [5]: Metabolic stability assay, human microsomes. The note with it: for microsomal CLint: human recombinant microsomes (Tebu-Xenotech). Format: in vitro ADME. As for the experimental part: as §1, §2, §3, §4, §5
The conditions of data set [6]: dogs; cited from earlier work.
The next data set concerns the target ACVR2B (Homo sapiens (Human), UniProt Q13705). The note with it: cited from earlier work.
The target of another data set is ALK6 (Homo sapiens (Human), UniProt O00238). The note with it: cited from earlier work.
Chain of ALK6 (O00238 14-502): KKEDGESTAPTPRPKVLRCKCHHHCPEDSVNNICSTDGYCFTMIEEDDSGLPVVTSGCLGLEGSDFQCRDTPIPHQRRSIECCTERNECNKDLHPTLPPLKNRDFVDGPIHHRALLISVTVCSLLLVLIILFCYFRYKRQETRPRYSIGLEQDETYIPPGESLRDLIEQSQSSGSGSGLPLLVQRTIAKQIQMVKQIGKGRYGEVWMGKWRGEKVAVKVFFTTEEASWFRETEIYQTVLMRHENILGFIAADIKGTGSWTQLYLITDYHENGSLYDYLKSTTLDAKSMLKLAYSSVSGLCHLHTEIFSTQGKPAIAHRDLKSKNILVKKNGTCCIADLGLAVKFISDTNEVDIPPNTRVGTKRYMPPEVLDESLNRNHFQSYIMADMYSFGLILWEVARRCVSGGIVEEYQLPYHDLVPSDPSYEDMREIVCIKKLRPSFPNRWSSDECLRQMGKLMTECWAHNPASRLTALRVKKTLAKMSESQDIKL
The target in the next data set is MINK (Homo sapiens (Human), UniProt Q8N4C8). The note with it: cited from earlier work.
Chain of MINK (Q8N4C8 whole entry): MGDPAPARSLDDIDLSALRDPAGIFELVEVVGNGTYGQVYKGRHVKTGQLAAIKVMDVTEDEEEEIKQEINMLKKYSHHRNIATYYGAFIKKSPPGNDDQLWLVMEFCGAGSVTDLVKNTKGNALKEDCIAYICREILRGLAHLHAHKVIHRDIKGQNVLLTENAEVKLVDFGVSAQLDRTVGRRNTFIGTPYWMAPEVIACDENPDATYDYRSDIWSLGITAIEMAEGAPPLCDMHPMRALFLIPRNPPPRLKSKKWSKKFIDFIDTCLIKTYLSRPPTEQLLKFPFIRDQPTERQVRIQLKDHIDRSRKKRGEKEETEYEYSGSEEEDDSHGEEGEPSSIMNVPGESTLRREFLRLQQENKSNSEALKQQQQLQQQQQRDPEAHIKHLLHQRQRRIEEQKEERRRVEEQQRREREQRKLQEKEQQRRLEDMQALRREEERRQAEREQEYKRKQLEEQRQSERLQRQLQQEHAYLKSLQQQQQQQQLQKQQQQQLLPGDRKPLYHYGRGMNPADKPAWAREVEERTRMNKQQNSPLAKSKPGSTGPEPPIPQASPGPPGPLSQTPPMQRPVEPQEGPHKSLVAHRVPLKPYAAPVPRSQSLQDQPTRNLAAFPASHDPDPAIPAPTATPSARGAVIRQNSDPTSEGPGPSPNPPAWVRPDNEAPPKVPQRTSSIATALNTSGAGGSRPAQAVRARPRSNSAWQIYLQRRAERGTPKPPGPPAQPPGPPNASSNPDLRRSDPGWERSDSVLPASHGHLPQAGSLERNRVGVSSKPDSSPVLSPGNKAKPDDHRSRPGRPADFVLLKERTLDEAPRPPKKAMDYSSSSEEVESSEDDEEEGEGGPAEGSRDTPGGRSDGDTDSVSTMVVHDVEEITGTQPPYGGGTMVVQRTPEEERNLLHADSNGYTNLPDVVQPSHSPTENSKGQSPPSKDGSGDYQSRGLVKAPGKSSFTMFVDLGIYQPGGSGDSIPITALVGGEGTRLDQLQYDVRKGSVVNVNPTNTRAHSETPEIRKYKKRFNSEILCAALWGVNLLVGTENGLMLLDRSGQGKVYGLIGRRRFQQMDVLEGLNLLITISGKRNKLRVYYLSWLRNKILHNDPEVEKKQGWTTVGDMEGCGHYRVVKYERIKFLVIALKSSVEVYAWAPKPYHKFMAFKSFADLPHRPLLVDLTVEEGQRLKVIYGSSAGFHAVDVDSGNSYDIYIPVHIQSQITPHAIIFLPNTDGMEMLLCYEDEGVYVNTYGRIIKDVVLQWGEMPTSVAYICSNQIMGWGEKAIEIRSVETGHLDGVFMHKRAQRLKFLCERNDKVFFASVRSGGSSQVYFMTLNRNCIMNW
In another data set the test system is myelofibrosis (MF). The settings on record: mouse models; cited from earlier work.
A further data set concerns the target ALK4 (Homo sapiens (Human), UniProt P36896). The note with it: cited from earlier work.
For data set [7] the following is noted: rats; cited from earlier work. The source holds these as a separate data set.
In another data set the target is TGFβRII (Homo sapiens (Human), UniProt P37173). The note with it: cited from earlier work.
Chain of TGFβRII (P37173 23-567): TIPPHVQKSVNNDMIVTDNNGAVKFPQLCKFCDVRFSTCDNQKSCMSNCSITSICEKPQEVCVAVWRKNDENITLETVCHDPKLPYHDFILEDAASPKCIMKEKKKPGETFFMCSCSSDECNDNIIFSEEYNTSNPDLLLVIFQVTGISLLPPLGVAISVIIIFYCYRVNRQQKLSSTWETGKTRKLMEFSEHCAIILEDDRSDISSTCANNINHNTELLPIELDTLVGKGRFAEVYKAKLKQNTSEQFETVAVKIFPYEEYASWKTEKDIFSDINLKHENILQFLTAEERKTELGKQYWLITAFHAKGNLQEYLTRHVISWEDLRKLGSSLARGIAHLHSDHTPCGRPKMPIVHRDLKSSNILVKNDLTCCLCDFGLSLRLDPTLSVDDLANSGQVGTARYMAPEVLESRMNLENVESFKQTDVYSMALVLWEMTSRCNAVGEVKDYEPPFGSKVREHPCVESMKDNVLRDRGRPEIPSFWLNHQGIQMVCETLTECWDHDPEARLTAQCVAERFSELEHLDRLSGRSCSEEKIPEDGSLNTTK
The conditions of data set [8]: in vivo; cited from earlier work.
The next data set has as its system human pancreatic cancer. The note with it: systemic administration; cited from earlier work.

Chain of Human TGFβR-1 kinase (P36897 34-503): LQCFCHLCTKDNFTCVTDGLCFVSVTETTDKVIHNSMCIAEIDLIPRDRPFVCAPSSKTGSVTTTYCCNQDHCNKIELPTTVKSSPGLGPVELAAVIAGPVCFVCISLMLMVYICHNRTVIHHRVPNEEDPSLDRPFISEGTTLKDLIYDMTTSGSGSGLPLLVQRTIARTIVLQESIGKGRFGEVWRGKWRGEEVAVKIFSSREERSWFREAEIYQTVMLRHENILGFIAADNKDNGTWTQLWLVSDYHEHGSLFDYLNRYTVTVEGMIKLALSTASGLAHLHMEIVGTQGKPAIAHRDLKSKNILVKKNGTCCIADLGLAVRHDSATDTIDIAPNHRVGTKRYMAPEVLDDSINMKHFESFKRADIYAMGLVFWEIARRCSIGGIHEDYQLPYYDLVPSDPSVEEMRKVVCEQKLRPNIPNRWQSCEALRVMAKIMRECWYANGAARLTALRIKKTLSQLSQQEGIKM
Chain of TGF-beta kinase (ALK-5) (P36897 34-503): as above
Chain of ALK4 (P36896 24-505, species assumed): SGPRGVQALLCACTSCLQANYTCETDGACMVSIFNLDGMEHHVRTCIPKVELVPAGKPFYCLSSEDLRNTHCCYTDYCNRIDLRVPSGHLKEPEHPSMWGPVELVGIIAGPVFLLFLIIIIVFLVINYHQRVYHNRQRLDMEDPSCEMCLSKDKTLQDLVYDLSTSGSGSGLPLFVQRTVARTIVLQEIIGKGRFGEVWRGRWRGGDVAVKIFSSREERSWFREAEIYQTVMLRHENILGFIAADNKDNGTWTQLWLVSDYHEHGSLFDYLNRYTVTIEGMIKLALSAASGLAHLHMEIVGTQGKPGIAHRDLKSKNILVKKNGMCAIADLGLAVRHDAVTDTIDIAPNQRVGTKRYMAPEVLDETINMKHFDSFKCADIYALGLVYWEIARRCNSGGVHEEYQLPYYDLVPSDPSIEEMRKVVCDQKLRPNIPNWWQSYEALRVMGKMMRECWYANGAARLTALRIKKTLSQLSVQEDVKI
Chain of ACVR2B (Q13705 19-512, species assumed): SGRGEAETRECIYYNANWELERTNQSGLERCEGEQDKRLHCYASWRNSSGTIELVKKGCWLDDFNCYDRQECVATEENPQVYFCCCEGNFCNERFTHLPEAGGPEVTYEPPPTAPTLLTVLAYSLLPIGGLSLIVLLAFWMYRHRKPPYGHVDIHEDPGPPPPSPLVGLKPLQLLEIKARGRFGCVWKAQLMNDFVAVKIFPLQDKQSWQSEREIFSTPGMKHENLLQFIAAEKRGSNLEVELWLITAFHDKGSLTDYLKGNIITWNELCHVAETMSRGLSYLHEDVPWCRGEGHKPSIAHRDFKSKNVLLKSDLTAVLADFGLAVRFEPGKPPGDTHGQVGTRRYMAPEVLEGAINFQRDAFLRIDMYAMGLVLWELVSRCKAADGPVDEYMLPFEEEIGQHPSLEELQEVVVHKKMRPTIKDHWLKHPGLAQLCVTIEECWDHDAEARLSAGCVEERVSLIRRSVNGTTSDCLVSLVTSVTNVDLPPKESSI

As to `c1ccc(-c2nc3c(c(-n4ccc5cnccc54)n2)CCC3)nc1` [AZ12601011], the “Histopathology finding in heart” value with heart valves is given as “heart valve lesions”.

On to `Cc1ccc(Oc2ccnc(Nc3ccc(S(N)(=O)=O)cc3)c2)c(C)n1` [AZ12799734], for which the “Histopathology finding in heart” value in the data set on heart valves is “heart valve lesions”.

In the case of `Cc1cccc(-c2[nH]c(CNc3ccccc3F)nc2-c2ccc3ncnn3c2)n1` [EW-7197], the oral bioavailability in data set [1] is reported as 51%.

Regarding `Cc1cccc(-c2nn(CC(=O)NCc3ccccc3)cc2-c2ccnc3ccccc23)n1` [Example 9, N-benzyl-2-(3-(6-methylpyridin-2-yl)-4-(quinolin-4-yl)-1H-pyrazol-1-yl)acetamide], on Human TGFβR-1 kinase, the IC50 (as a rule, the concentration that gives 50% inhibition) was under 0.1 µM. Moreover, the Major metabolite identified result in data set [2] is “Compound A”. Moreover, in data set [3], the AUC(0-inf) (usually total exposure, with the tail of the curve extrapolated) amounted to 27.7 ng·h/mL; the AUC(0-t) (usually exposure summed from dosing to a finite time, without extrapolation to infinity) came out at 27 ng·h/mL; the Cmax (usually the highest concentration seen after dosing) worked out at 62.8 ng/mL; the Tmax – broadly, the time at which the peak concentration occurs – came out at 15 min. Besides, the IC50 at TGF-beta kinase (ALK-5) was under 0.1 µM.

Take `Cc1cccc(-c2nn(CC(=O)NCc3ccccc3C)cc2-c2ccnc3ccccc23)n1` [Example 15, N-(2-methylbenzyl)-2-(3-(6-methylpyridin-2-yl)-4-(quinolin-4-yl)-1H-pyrazol-1-yl)acetamide]: on Human TGFβR-1 kinase, the IC50 is under 0.1 µM. Further, the Major metabolite identified entry in data set [2] is “Compound A”. In [3], the area under the curve AUC(0-inf) came to 39.4 ng·h/mL, the AUC(0-t) was 35.1 ng·h/mL, the Cmax worked out at 75.8 ng/mL and the time to peak (Tmax) amounted to 15 min. Further, the IC50 on TGF-beta kinase (ALK-5) lay within 0.1 to 0.5 µM.

For `Cc1ccc(CNC(=O)Cn2cc(-c3ccnc4ccccc34)c(-c3cccc(C)n3)n2)cc1` [Example 20, N-(4-methylbenzyl)-2-(3-(6-methylpyridin-2-yl)-4-(quinolin-4-yl)-1H-pyrazol-1-yl)acetamide], the IC50 on Human TGFβR-1 kinase and at TGF-beta kinase (ALK-5) was under 0.1 µM in each case. Besides, the “% remanent (sampling time 60 min)” value in [4] is reported as 0.02%; in data set [5] it was 0.01%. Further, the intrinsic metabolic clearance (microsomal CLint) (in general, a measure of how fast metabolising enzymes remove a compound, apart from limits set by blood flow) in data set [4] was determined as 381 µL/min/mg; in data set [5] it was 216 µL/min/mg. For the same compound, the Major metabolite identified result in [2] is “Compound A”.

In the case of `Cc1cccc(-c2nn(CC(=O)NCc3ccccc3Cl)cc2-c2ccnc3ccccc23)n1` [Example 22, N-(2-chlorobenzyl)-2-(3-(6-methylpyridin-2-yl)-4-(quinolin-4-yl)-1H-pyrazol-1-yl)acetamide], at Human TGFβR-1 kinase, the IC50 was under 0.1 µM. For the same compound, in data set [4], the “% remanent (sampling time 60 min)” value came out at 0.14% and the microsomal CLint is 644 µL/min/mg. Moreover, the Major metabolite identified entry in [2] was “Compound A”. Moreover, in [3], the AUC(0-inf) is 15.3 ng·h/mL, the AUC(0-t) turned out to be 13.7 ng·h/mL, the peak level (Cmax) was 20 ng/mL and the Tmax worked out at 19.8 min. On TGF-beta kinase (ALK-5), the IC50 was under 0.1 µM. Further, in data set [5], the “% remanent (sampling time 60 min)” value was found to be 0.03% and the microsomal CLint is 378 µL/min/mg.

`Cc1cccc(-c2nn(CC(=O)NCc3c(F)cccc3F)cc2-c2ccnc3ccccc23)n1` [Example 24, N-(2,6-difluorobenzyl)-2-(3-(6-methylpyridin-2-yl)-4-(quinolin-4-yl)-1H-pyrazol-1-yl)acetamide]: the IC50 at Human TGFβR-1 kinase and at TGF-beta kinase (ALK-5) was under 0.1 µM each time. Moreover, the “% remanent (sampling time 60 min)” value was found to be 0.01% in data set [4] and 0.05% in data set [5]. Further, the values for the intrinsic clearance (microsomal CLint) in data set [4] and in [5] were 360 µL/min/mg and 307 µL/min/mg, respectively. The Major metabolite identified entry in data set [2] is given as “Compound A”. In addition, in data set [3] (LLOQ 1.01 ng/mL), the “Plasma concentrations quantifiable (PK parameters not calculable)” value is recorded as “Concentrations were quantifiable only at 0.25”.

Take `Cc1cccc(-c2nn(CC(=O)NCc3c(C)cccc3C)cc2-c2ccnc3ccccc23)n1` [Example 26, N-(2,6-dimethylbenzyl)-2-(3-(6-methylpyridin-2-yl)-4-(quinolin-4-yl)-1H-pyrazol-1-yl)acetamide]: the IC50 on Human TGFβR-1 kinase is under 0.1 µM; on TGF-beta kinase (ALK-5), 0.1 to 0.5 µM. The “% remanent (sampling time 60 min)” value in [4] was 0.08%; in data set [5] it was 0.05%. For the same compound, the microsomal CLint in data set [4] came to 826 µL/min/mg; in data set [5], 622 µL/min/mg. Moreover, in [2], the Major metabolite identified result is “Compound A”.

Regarding `Cc1cccc(-c2nn3c(c2-c2ccnc4ccc(C(N)=O)cc24)CCC3)n1` [Galunisertib], the “Major target organs for toxicity” value is “the heart and great vessels” in data set [6]; “the heart and great vessels” in data set [7]. Also, the “IC50 ACVR2B” value at ACVR2B is listed as “submicromolar”. Further, the “IC50 ALK6” value at ALK6 is reported as “submicromolar”. Also, the “IC50 MINK” value on MINK was “submicromolar”. The Effect on myelofibrosis entry with myelofibrosis (MF) was “significantly improved MF”. Besides, the IC50 on ALK4 was 0.77 µM. Moreover, the “IC50 TGFβRII” value on TGFβRII was “submicromolar”. The “oral bioavailability” value in data set [8] is recorded as “orally bioavailable”.

Take `c1ccc(-c2nn3c(c2-c2ccnc4cc(OCCN5CCOCC5)ccc24)CCC3)nc1` [LY2109761]: the Effect on metastasis entry in the data set on human pancreatic cancer is “suppresses liver and other abdominal site metastasis”.
